Measurements reported in patent USRE39220E1, “Peptide-mediated gene transfer” (Genetic Applications, LLC, priority 1994, dated 2006).

How the values were obtained:
Assay type in all cases: cell-based
[1] = tested on: Mouse fibroblast cell line (L cells); test: Selection of stably transfected cell lines (G418-resistant colonies); conditions: G418 400 μg/ml selection, colonies counted two weeks after start of selection, similar with hygromycin
From the text: The DNA or other polynucleotide to be transfected, such as a plasmid containing a gene for a drug resistance marker or coding a protein needed for expression in the host cell, is complexed to a synthetic polypeptide molecule in different weight ratios in an isotonic buffer solution. For example the weight ratio of DNA:polypeptide can be between 1:1 and 10:1, although ratios outside of this range may be evaluated empirically for achieving the objects of the present invention. An isotonic buffer solution such as Hanks buffered salt solution or HEPES buffered saline may be used for complexing DNA to polypeptide.
(§1) While the complex is formed, the cells that are to be transfected either remain attached to a substratum, such as a tissue culture dish, or are pelleted (for cells that grow in suspension). The cells are treated with a hypertonic primer solution, such as a concentration of 0.3M-0.6M sucrose and 10% PEG in either Tris-HCl or HEPES (pH 7.2) buffered solution, for 3-5 mins at room temperature. The primer solution then is removed.
After the DNA-polypeptide complex is formed, it is made hypotonic. […]
Transfected cells are grown in regular growth medium for 48 hours, and then plated in selective medium containing 400 μg/ml of G418. […] The number of G418-resistant colonies was determined two weeks after the initiation of selection. […]

[2] = tested on: COS cells; test: Transient expression of β-gal reporter gene (CH110) in COS cells; conditions: DNA-polypeptide 2.5-5.0 μg, stained 48 hrs after transfection
Protocol: as §1
After the DNA-polypeptide complex is formed, it is made hypotonic. The complex solution is hypotonic when it has a lesser osmotic pressure than a 0.15M or 0.9% solution of NaCl. For example, the complex in isotonic buffer can be made […] hypotonic or 0.075M simply by adding an amount of distilled water that is equal to the volume of the complex in isotonic buffer. The hypotonic complex solution then is added to the cells that have been treated with the primer solution. Cells remain in the hypotonic DNA-polypeptide solution for 3-4 minutes. Fresh medium then is added to the cells to rinse away excess DNA-polypeptide solution. Thereafter, the cells are grown normally.
Three different cell lines were used to test the efficiency of gene transfer of the new method. Mouse fibroblast cell line (L cells), mouse erythroleukemia cell line (C19TK), and COS cells. The COS cell line was used to establish conditions for transient gene expression. […]

[3] = tested on: mouse erythroleukemia cell line, C19TK; test: Stable transfection of hematopoietic cells in suspension, hygromycin selection (pDR2); conditions: pDR2, hygromycin selection in microtiter plates, plated 48 hours after transfection
Protocol: A mouse erythroleukemia cell line, C19TK, also was used as a representative cell line for testing the transfection efficiency of the present invention with respect to hematopoietic cells. The expression vector, pDR2, which carries a hygromycin-resistance gene, was used for these studies, C19TK cells are exquisitely sensitive for the antibiotic hygromycin.
Briefly, about million cells are spun down and the cell pellet is treated with primer. The cells are then exposed to DNA-polypeptide complex under hypotonic condition. Forty-eight hours after transfection, a known number of cells are plated in microtiter plates with hygromycin. The number of wells with growing population of cells was enumerated to determine the transfection efficiency. The stable transfection efficiency was about 1-5%, as compared to most of the other non-virus-based methods that are very poor. Thus, the method described herein is very efficient for stable transfection efficiency both for hematopoietic and non hematopoietic cell lines. […] See Gilboa, et al. (1986), Miller, et al. (1986), Stuhlmann, et al. (1989), Miller, et al. (1989), and Zwiebel, et al. (1989), each cited above.

For “PKKKRKVSGGGGGKKKKKKKKKKKK [Peptide-Mediated Gene Transfer, synthetic polypeptide (NLS peptide, neutral hinge, polylysine chain) linked electrostatically to DNA, forming a polypeptide-DNA complex]”, the “Stable Transfection Efficiency” value [1] was 5-10%, the “Stable Transfection Efficiency” value ([1]; listed as DNA-polypeptide complex) was 5-10% and the “cells positive for the expression of the β-gal reporter gene” value [2] was “Forty to fifty”. The Stable Transfection Efficiency [3] was 1-5%.
